From patent publication US20230391779A1, “BICYCLIC COMPOUNDS, COMPOSITIONS AND USE THEREOF” (Betta Pharmaceuticals Co., Ltd., priority 2020, published 2023)

Assays:
[1] = test system: TEAD-YAP/TAZ interaction; experiment: CTGF ELISA assay; format: cell-based, human; conditions: CTGF in culture supernatant of NCI-H2052 cells, 24 hours with compound
How it was run: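 NCI-H2052 cells treated 24 h at 37 °C with compound (10000–0.61 nM, 0.5% DMSO); secreted CTGF in supernatant measured by sandwich ELISA (OD 450 nm) against a standard curve. EC50 fitted from CTGF concentration-response curves.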

[2] = Pharmacokinetics in plasma following PO cassette dosing in mice; format: in vivo; conditions: mouse, Balb/C female mice, 5 mg/kg; for AUC: blood collection 30 min, 2 h, 4 h
Protocol: Adult Balb/C female mice (6-7 weeks, Vitalriver) were received to cassette dosing of the test compounds with 10-20% DMSO, 10% Solutol (Kolliphor HS 15, Beijing Fengli Jingqiu Pharmaceutical Co., Ltd.) and 80-70% H2O as excipients. The mice (n=3) were giving oral administration (intragastric administration) at a dose of 5 mg/kg. Time of blood collection: 30 min, 2 h, 4 h. About 0.1 mL of whole blood was collected from retro-orbital venous plexus, and placed into tubes that contained EDTA as an anticoagulant. The samples were centrifuged at 4° C. and 4000 rpm for 10 min. The plasma was transferred into centrifuge tubes, and stored at −20° C. before being analyzed. Concentrations of test compounds in the plasma samples were analyzed with liquid chromatography-tandem mass spectrometry (LC-MS/MS). Plasma concentration-time data of individual animals was analyzed using Microsoft Excel 2010. Non-compartmental model was introduced in concentration analysis. The pharmacokinetic parameters of the test compounds were calculated using WinNonlin (version 4.1; Pharsight) software.

Row | SMILES | EC50 [1] | Cmax [2] | AUC [2]
1 | C=C(F)C(=O)N1CC(n2nc(C#CC3CCCC3)c3cccnc32)C1 [compound 312, 1-(3-(3-(cyclopentylethynyl)-1H-pyrazolo[3,4-b]pyridin-1-yl)azetidin-1-yl)-2-fluoroprop-2-en-1-one] |  | 2080 ng/mL | 5790 ng·h/mL
2 | C=C(F)C(=O)N1CC(n2c(=O)n(-c3ccc(C(F)(F)F)nc3)c3ccc(C)nc32)C1 [Compound 243, 3-(1-(2-fluoroacryloyl)azetidin-3-yl)-5-methyl-1-(6-(trifluoromethyl)pyridin-3-yl)-1,3-dihydro-2H-imidazo[4,5-b]pyridin-2-one] | 0.028 µM | 1210 ng/mL | 4010 ng·h/mL
3 | C=C(F)C(=O)N1CC(n2nc(-c3ccc(S(F)(F)(F)(F)F)cc3)c3cccnc32)C1 [Compound 173, 2-fluoro-1-(3-(3-(4-(pentafluoro-16-sulfanyl)phenyl)-1H-pyrazolo-[3,4-b]pyridin-1-yl)azetidin-1-yl)prop-2-en-1-one] | 0.048 µM | 1670 ng/mL | 5960 ng·h/mL
4 | C=CC(=O)NC1CN(c2nc(-c3ccc(C(F)(F)F)cc3)nc3ccccc23)C1 [compound 268, N-(1-(2-(4-(trifluoromethyl)phenyl)quinazolin-4-yl)azetidin-3-yl)acrylamide] |  | 1690 ng/mL | 6100 ng·h/mL
5 | C=C(F)C(=O)N1CC(n2c(=O)n(-c3ccc(C(F)(F)F)nc3)c3nccnc32)C1 [Compound 241, 1-(1-(2-fluoroacryloyl)azetidin-3-yl)-3-(6-(trifluoromethyl)pyridin-3-yl)-1,3-dihydro-2H-imidazo[4,5-b]pyrazin-2-one] |  | 2530 ng/mL | 8260 ng·h/mL
6 | C=C(F)C(=O)N1CC(n2nc(/C=C/C3CCCCC3)c3cccnc32)C1 [compound 331, (E)-1-(3-(3-(2-cyclohexylvinyl)-1H-pyrazolo[3,4-b]pyridin-1-yl)azetidin-1-yl)-2-fluoroprop-2-en-1-one] |  | 1760 ng/mL | 5730 ng·h/mL
7 | C=CC(=O)NC1CN(c2nc(-c3ccc(C(F)(F)F)cc3)nc3cccnc23)C1 [compound 281, N-(1-(2-(4-(trifluoromethyl)phenyl)pyrido[3,2-d]pyrimidin-4-yl)azetidin-3-yl)acrylamide] |  | 1190 ng/mL | 4200 ng·h/mL
8 | C=C(F)C(=O)NC1CN(c2nc(-c3ccc(C(F)(F)F)cc3)nc3ccccc23)C1 [compound 269, 2-fluoro-N-(1-(2-(4-(trifluoromethyl)phenyl)quinazolin-4-yl)azetidin-3-yl)acrylamide] |  | 1250 ng/mL | 4370 ng·h/mL
9 | C=C(F)C(=O)N1CC(n2nc(C#Cc3ccccc3)c3cccnc32)C1 [compound 307] |  | 2710 ng/mL | 8480 ng·h/mL
10 | C=C(F)C(=O)N1CC(n2nc(/C=C/c3ccccc3)c3cccnc32)C1 [compound 308] |  | 2610 ng/mL | 9110 ng·h/mL
11 | C=CC(=O)N1CCC(n2nc(-c3ccc(C(F)(F)F)cc3)c3ccc(OC)cc32)C1 (stereo not drawn) [Compound 54, 1-(3-(6-methoxy-3-(4-(trifluoro-methyl)phenyl)-1H-indazol-1-yl)-pyrrolidin-1-yl)prop-2-en-1-one] | 0.032 µM |  | 
12 | C=CC(=O)N1CCC(n2nc(-c3ccc(C(F)(F)F)cc3)c3cccc(C(=O)N4CCC(F)(F)C4)c32)C1 (stereo not drawn) [Compound 112, 1-(3-(7-(3,3-difluoropyrrolidine-1-carbonyl)-3-(4-(trifluoro-methyl)phenyl)-1H-indazol-1-yl)-pyrrolidin-1-yl)prop-2-en-1-one] | 0.086 µM |  | 
13 | C=CC(=O)N1CC(n2nc(-c3ccc(C4CC4)cc3)c3ncccc32)C1 [Compound 120, 1-(3-(3-(4-cyclopropylphenyl)-1H-pyrazolo[4,3-b]pyridin-1-yl)-azetidin-1-yl)prop-2-en-1-one] | 0.036 µM |  | 
14 | C=C(F)C(=O)N1CC(n2nc(-c3cnc(C(F)(F)F)nc3)c3cccnc32)C1 [Compound 183, 2-fluoro-1-(3-(3-(2-(trifluorometh-yl)pyrimidin-5-yl)-1H-pyrazolo-[3,4-b]pyridin-1-yl)azetidin-1-yl)-prop-2-en-1-one] |  | 3680 ng/mL | 12800 ng·h/mL

The remaining lines, values ahead:

Row | EC50 [1] | Cmax [2] | AUC [2] | SMILES
15 | 0.0013 µM | 1600 ng/mL | 5880 ng·h/mL | C=C(F)C(=O)N1CC(n2c(=O)n(-c3ccc(C(F)(F)F)cc3)c3nccnc32)C1 [Compound 240, 1-(1-(2-fluoroacryloyl)azetidin-3-yl)-3-(4-(trifluoromethyl)phenyl)-1,3-dihydro-2H-imidazo[4,5-b]pyrazin-2-one]
16 | 0.011 µM | 1060 ng/mL | 3150 ng·h/mL | C=CC(=O)N1CCC(n2nc(-c3ccc(C(F)(F)F)cc3)c3cccnc32)C1 (stereo not drawn) [Compound 21, 1-(3-(3-(4-(trifluoromethyl)phen-yl)-1H-pyrazolo[3,4-b]pyridin-1-yl)pyrrolidin-1-yl)prop-2-en-1-one]
17 | 0.017 µM | 1580 ng/mL | 4470 ng·h/mL | C=CC(=O)N1CCC(n2nc(-c3ccc(C(F)(F)F)cn3)c3ccccc32)C1 (stereo not drawn) [Compound 58, 1-(3-(3-(5-(trifluoromethyl)pyr-idin-2-yl)-1H-indazol-1-yl)pyrrol-idin-1-yl)prop-2-en-1-one]
18 | 0.01 µM | 1770 ng/mL | 5410 ng·h/mL | C=C(F)C(=O)N1CC(n2c(=O)n(-c3ccc(C(F)(F)F)cc3)c3ccc(C)nc32)C1 [Compound 242, 3-(1-(2-fluoroacryloyl)azetidin-3-yl)-5-methyl-1-(4-(trifluoromethyl)phenyl)-1,3-dihydro-2H-imidazo[4,5-b]pyridin-2-one]
19 | 0.0004 µM | 1650 ng/mL | 1650 ng·h/mL | C=C(F)C(=O)N1CC(n2nc(-c3ccc(OC(F)(F)F)cc3)c3cccnc32)C1 [Compound 172, 2-fluoro-1-(3-(3-(4-(trifluoro-methoxy)phenyl)-1H-pyrazolo-[3,4-b]pyridin-1-yl)azetidin-1-yl)prop-2-en-1-one]
20 | 0.004 µM | 1960 ng/mL | 7110 ng·h/mL | C=C(F)C(=O)N1CC(n2nc(-c3ccc(C(F)(F)F)cc3F)c3ncccc32)C1 [Compound 130, 2-fluoro-1-(3-(3-(2-fluoro-4-(trifluoromethyl)phenyl)-1H-pyrazolo[4,3-b]pyridin-1-yl)-azetidin-1-yl)prop-2-en-1-one]
21 | 0.02 µM | 1040 ng/mL | 3840 ng·h/mL | C=C(F)C(=O)N1CC(n2c(=O)n(-c3ccc(C(F)(F)F)cc3)c3ccccc32)C1 [Compound 229, 1-(1-(2 fluoroacryloyl)azetidin-3 yl)-3-(4-(trifluoromethyl)phenyl)-1,3-dihydro-2H-benzo[d]imidazol-2-one]
22 | 0.009 µM | 5270 ng/mL | 19300 ng·h/mL | C=C(F)C(=O)N1CC(n2nc(-c3ccc(C(F)(F)F)cc3F)c3cccnc32)C1 [Compound 128, 2-fluoro-1-(3-(3-(2-fluoro-4-(trifluoromethyl)phenyl)-1H-pyrazolo[3,4-b]pyridin-1-yl)-azetidin-1-yl)prop-2-en-1-one]
23 | 0.0007 µM | 1190 ng/mL | 3780 ng·h/mL | C=C(F)C(=O)N1CC(n2nc(-c3ccc(C(F)(F)F)cc3)c3ncn(CC)c(=O)c32)C1 [Compound 218, 6-ethyl-1-(1-(2-fluoroacryloyl)-azetidin-3-yl)-3-(4-(trifluoro-methyl)phenyl)-1,6-dihydro-7H-pyrazolo[4,3-d]pyrimidin-7-one]
24 | 0.012 µM | 1200 ng/mL | 3500 ng·h/mL | C=CC(=O)N1CCC(n2nc(-c3ccc(C(F)(F)F)cc3)c3cc(Cl)cnc32)C1 (stereo not drawn) [Compound 108, 1-(3-(5-chloro-3-(4-(trifluoro-methyl)phenyl)-1H-pyrazolo[3,4-b]pyridin-1-yl)pyrrolidin-1-yl)-prop-2-en-1-one]
25 | 0.003 µM |  |  | C=CC(=O)N1CC(n2nc(-c3ccc(C(F)(F)F)cc3)c3nccnc32)C1 [Compound 161, 1-(3-(3-(4-(trifluoromethyl)phen-yl)-1H-pyrazolo[3,4-b]pyrazin-1-yl)azetidin-1-yl)prop-2-en-1-one]
26 | 0.015 µM |  |  | C=C(F)C(=O)N1CC(n2c(=O)n(-c3ccc(C(F)(F)F)cc3)c3ncccc32)C1 [Compound 239, 1-(1-(2-fluoroacryloyl)azetidin-3-yl)-3-(4-(trifluoromethyl)phenyl)-1,3-dihydro-2H-imidazo[4,5-b]pyridin-2-one]
27 | 0.0007 µM |  |  | C=C(F)C(=O)N1CC(c2nc(-c3ccc(C(F)(F)F)cc3)nc3ccccc23)C1 [Compound 256, 2 fluoro-1-(3-(2-(4-(trifluoromethyl)phenyl)quinazolin-4 yl)azetidin-1 yl)prop-2-en-1-one]
28 | 0.0014 µM |  |  | C=C(F)C(=O)N1CC(n2nc(-c3ccc(C(F)(F)F)cc3)c3cccnc32)C1C (stereo not drawn) [Compound 9, 2 fluoro-1-(2-methyl-3-(3-(4-(trifluoromethyl)phenyl)-1H-pyrazolo[3,4-b]pyridin-1 yl)azetidin-1 yl)prop-2-en-1-one]
29 | 0.023 µM |  |  | C=CC(=O)N1CCC(n2nc(-c3ccc(C(F)(F)F)cc3)c3ccc(F)cc32)C1 (stereo not drawn) [Compound 50, 1-(3-(6-fluoro-3-(4-(trifluoro-methyl)phenyl)-1H-indazol-1-yl)-pyrrolidin-1-yl)prop-2-en-1-one]
30 | 0.011 µM |  |  | C=C(F)C(=O)N1CC(n2c(=O)n(-c3ccc(C(F)(F)F)cc3)c3cc(C)cnc32)C1 [Compound 244, 3-(1-(2-fluoroacryloyl)azetidin-3-yl)-6-methyl-1-(4-(trifluoromethyl)phenyl)-1,3-dihydro-2H-imidazo[4,5-b]pyridin-2-one]
